Laboratory results: patent publication US20090048112A1, “Novel Herbicides” (SYNGENTA LIMITED, priority 2005, published 2009)

Test system: Monocotyledonous and dicotyledonous test plants
Test: Example B3: herbicidal action prior to emergence (pre-emergence), 96-cell seed trays, 1000 g/ha
Assay type: in vivo
Set-up: key: 0 is no damage to plant; 5 is total damage to plant
Conditions: 9 days after application; for AGSTE herbicidal effect (visual assessment, scale 0-5): Agrostis tenius (Colonial bentgrass); for AMARE herbicidal effect (visual assessment, scale 0-5): Amaranthus retroflexus (redroot pigweed); for DIGSA herbicidal effect (visual assessment, scale 0-5): Digitaria sanguinalis (hairy finger-grass); for POATR herbicidal effect (visual assessment, scale 0-5): Poa trivialis (rough blue grass); for SETIT herbicidal effect (visual assessment, scale 0-5): Setaria italica (foxtail millet)
Method: Monocotyledonous and dicotyledonous test plants were sown in sterilised standard soil in seed trays each with 96 cells. The seed trays were stored under controlled conditions in a climatic chamber for one day (cultivation at 23° C. during the day and 17° C. at night; 13 hours of light; 50-60% humidity). The chemicals were applied to the soil surface. The application was carried out with an aqueous suspension of the test substances, prepared as a formulation in water with 10% dimethyl sulfoxide (CAS RN 67-68-5), to achieve a field equivalent of 1000 l/ha. The application rate of the test substances was 1000 g/ha. The plants were grown on in the climatic chamber for 9 days (cultivation at 24° C. during the day and 19° C. at night; 13 hours of light; 50-60% humidity). A visual assessment of the herbicidal effect was made at 9 days after application. The following scale was used for assessment: 0, 1, 2, 3, 4 and 5 (where 0 is no damage to plant and 5 is total damage to plant).

SMILES	AGSTE herbicidal effect (visual assessment, scale 0-5)	AMARE herbicidal effect (visual assessment, scale 0-5)	DIGSA herbicidal effect (visual assessment, scale 0-5)	POATR herbicidal effect (visual assessment, scale 0-5)	SETIT herbicidal effect (visual assessment, scale 0-5)
CC(Oc1c(C[S+]([O-])c2ncc(Cl)s2)c(C(F)(F)F)nn1C)C(F)(F)F (mixture of isomers) [Compound 1.127]	5	5	5	5	5
CC[S+]([O-])c1c(C[S+]([O-])c2ncc(Cl)s2)c(C(F)(F)F)nn1C (mixture of isomers) [Compound No. 1.078]	5	4	5	5	5
CCS(=O)(=O)c1c(C[S+]([O-])c2ncc(Cl)s2)c(C(F)(F)F)nn1C (racemic) [1.080]	5	4	5	5	5
Cn1nc(C(F)(F)F)c(C[S+]([O-])c2ncc(C(F)F)s2)c1OCC(F)(F)F (racemic) [Compound 1.086]	5	5	5	5	4
Cn1nc(C(F)(F)F)c(C[S+]([O-])c2ncc(Cl)s2)c1OCCCF (racemic) [Compound 1.103]	5	4	5	5	4
Cn1cc(C[S+]([O-])c2ncc(Cl)s2)c(C(F)(F)F)n1 (racemic) [Compound 1.106]	0	2	4	5	4
Cn1nc(C(F)(F)F)c(C[S+]([O-])c2ncc(Cl)s2)c1OC(CF)CF (racemic) [Compound 1.113]	5	5	5	4	5
Cn1nc(C(F)(F)F)c(C[S+]([O-])c2ncc(Cl)s2)c1OCC(F)F (racemic) [Compound 1.116]	5	5	5	5	5
CC(Oc1c(CS(=O)(=O)c2ncc(Cl)s2)c(C(F)(F)F)nn1C)C(F)(F)F (racemic) [Compound 1.130]	5	5	5	5	5
CC(CF)Oc1c(CS(=O)(=O)c2ncc(Cl)s2)c(C(F)(F)F)nn1C (racemic) [Compound 1.133]	5	5	5	5	5
CSc1c(C[S+]([O-])c2ncc(Cl)s2)c(C(F)(F)F)nn1C (racemic) [Compound No. 1.089]	5	5	5	5	5
Cn1nc(C(F)(F)F)c(C[S+]([O-])c2ncc(Cl)s2)c1S(C)(=O)=O (racemic) [Compound No. 1.092]	5	3	5	3	4
CC(Oc1c(CSc2ncc(Cl)s2)c(C(F)(F)F)nn1C)C(F)(F)F (racemic) [Compound No. 1.126]	4	4	5	1	4
Cn1nc(C(F)(F)F)c(C[S+]([O-])c2ncc(Cl)s2)c1[S+](C)[O-] (single isomer, unassigned) [Compound No. 1.090]	5	3	5	4	5
Cn1nc(C(F)(F)F)c(C[S+]([O-])c2ncc(Cl)s2)c1[S+](C)[O-] (single isomer, unassigned) [Compound No. 1.091]	5	4	4	0	4
Cc1cnc(S(=O)(=O)Cc2c(C(F)(F)F)nn(C)c2OCC(F)(F)F)s1 [Compound 1.075]	5	1	0	5	5
Cn1nc(C(F)(F)F)c(CS(=O)(=O)c2ncc(Cl)s2)c1OCCCF [Compound 1.104]	5	5	5	5	5
Cn1cc(CS(=O)(=O)c2ncc(Cl)s2)c(C(F)(F)F)n1 [Compound 1.107]	0	3	5	0	3
Cn1nc(C(F)(F)F)c(CS(=O)(=O)c2ncc(Cl)s2)c1OC(CF)CF [Compound 1.114]	5	5	5	5	5
Cn1nc(C(F)(F)F)c(CS(=O)(=O)c2ncc(Cl)s2)c1OCC(F)F [Compound 1.117]	5	5	5	5	5
Cn1nc(C(F)(F)F)c(CS(=O)(=O)c2ncc(Cl)s2)c1OCC(F)(F)C(F)F [Compound 1.120]	5	5	5	5	5
